Molecules are shown by their SMILES.

The source of these data is patent publication US20180073031A1, “TRANSCRIPTIONAL SENSOR FOR BILE ACIDS IN BACTEROIDES THETAIOTAOMICRON” (priority 2016, published 2018).

The subject of test [1] is bile acid sensor BreR from V. cholerae. It counts as cell-based. As to conditions: for sensor sensitive to substance (FIG. 4 legend): in vitro functionality; for Sensitivity: BreR bile acid sensor in B. thetaiotaomicron; for Sensitivity / Basal Activity: ± SD; for Basal Activity / Dynamic Range: BreR bile acid sensor; for Basal Activity: basal reporter luminescence; for Dynamic Range: reporter induction; for induction of reporter luminescence by bile acid: strain grown with various concentrations of bile acids, FIGS. 4B-4G.

Test [2] deals with VFA0359 from Vibrio fischeri. The test is described as follows: Luciferase assay of bile acid sensor using VFA0359 in B. thetaiotaomicron. It counts as cell-based. As to conditions: same operator sequence as BreR.

For the molecule `CC(C)CCC[C@@H](C)[C@H]1CC[C@H]2[C@@H]3CC=C4C[C@@H](O)CC[C@]4(C)[C@H]3CC[C@]12C` [cholesterol], in test [1], the “sensor sensitive to substance (FIG. 4 legend)” value (“sensor sensitive to substance” for short) is on record as “not”.

Consider `C[C@H](CCC(=O)O)[C@H]1CC[C@H]2[C@@H]3CC[C@@H]4C[C@H](O)CC[C@]4(C)[C@H]3CC[C@]12C` [LCA, lithocholic acid], for which, in test [1], the Sensitivity was 1.4 ± 0.8 Lum/μM*10^−5, the “Basal Activity” value is 2.2 ± 0.9 Lum × 10^4 and the “Dynamic Range” value stood at 17.5 ± 4.9 fold-change.

Take `C[C@H](CCC(=O)NCC(=O)O)[C@H]1CC[C@H]2[C@@H]3[C@H](O)C[C@@H]4C[C@H](O)CC[C@]4(C)[C@H]3C[C@H](O)[C@]12C` [GCA, glycocholic acid]: in test [1], the “sensor sensitive to substance” value is given as “not” and the “induction of reporter luminescence by bile acid” value (“induction” below) is “does not sense”.

Take `C[C@H](CCC(=O)NCCS(=O)(=O)O)[C@H]1CC[C@H]2[C@@H]3[C@H](O)C[C@@H]4C[C@H](O)CC[C@]4(C)[C@H]3C[C@H](O)[C@]12C` [TCA, taurocholic acid]: in test [1], the “sensor sensitive to substance” value was “not” and the “induction” value is “does not sense”.

Consider `C[C@H](CCC(=O)O)[C@H]1CC[C@H]2[C@@H]3[C@H](O)C[C@@H]4C[C@H](O)CC[C@]4(C)[C@H]3CC[C@]12C` [CDCA, chenodeoxycholic acid], for which, in test [1], the “relative sensitivity of the sensor among deconjugated bile acids” value was “moderately sensitive”, the Sensitivity came out at 2.3 ± 1.1 Lum/μM*10^−5, the “Basal Activity” value is 1.9 ± 0.4 Lum × 10^4 and the “Dynamic Range” value was determined as 25.8 ± 11.1 fold-change. For the same molecule, in test [1], the “sensor sensitive to substance” value was “sensitive” and the “induction” value is listed as “induced luminescence in a dose dependent manner”.

`C[C@H](CCC(=O)O)[C@H]1CC[C@H]2[C@@H]3[C@H](O)C[C@@H]4C[C@H](O)CC[C@]4(C)[C@H]3C[C@H](O)[C@]12C` [CA, cholic acid]: in test [1], the “relative sensitivity of the sensor among deconjugated bile acids” value was “least sensitive”, the Sensitivity is 0.8 ± 0.2 Lum/μM*10^−5, the “Basal Activity” value is on record as 2.1 ± 0.7 Lum × 10^4 and the “Dynamic Range” value worked out at 18.5 ± 3.8 fold-change. Moreover, in test [1], the “sensor sensitive to substance” value is recorded as “sensitive” and the “induction” value is given as “induced luminescence in a dose dependent manner”.

As for `C[C@H](CCC(=O)O)[C@H]1CC[C@H]2[C@@H]3CC[C@@H]4C[C@H](O)CC[C@]4(C)[C@H]3C[C@H](O)[C@]12C` [DCA, deoxycholic acid], in test [1], the Sensitivity was determined as 25.8 ± 7.6 Lum/μM*10^−5, the “Basal Activity” value was found to be 1.7 ± 0.8 Lum × 10^4 and the “Dynamic Range” value worked out at 71.5 ± 3.4 fold-change. Further, the “induced gene expression of the reporter construct” value in test [2] was roughly 600 fold.
